Data: article PMC10709440, “High-throughput ligand profile characterization in novel cell lines expressing seven heterologous insect olfactory receptors for the detection of volatile plant biomarkers” (Scientific Reports, 2023)
Like-named read-outs stand apart in the source and are kept apart here.

Tests used:
[1] = molecular target: T1, Drosophila OR13a (Drosophila melanogaster, UniProt Q9VXL0); assay: Calcium ion fluorescence (GCaMP6) assay, OR13a stable HEK293 cell line; assay type: cell-based; design: key to DF norm AVERAGE OR13a: VOC ∆F divided by the plate's mean ∆F response to 50 µM VUAA1; details: for DF norm AVERAGE OR13a: threshold 0.05, below shown as 0
T1 construct: expressed in transfected cells
T1 sequence (Q9VXL0 1-418): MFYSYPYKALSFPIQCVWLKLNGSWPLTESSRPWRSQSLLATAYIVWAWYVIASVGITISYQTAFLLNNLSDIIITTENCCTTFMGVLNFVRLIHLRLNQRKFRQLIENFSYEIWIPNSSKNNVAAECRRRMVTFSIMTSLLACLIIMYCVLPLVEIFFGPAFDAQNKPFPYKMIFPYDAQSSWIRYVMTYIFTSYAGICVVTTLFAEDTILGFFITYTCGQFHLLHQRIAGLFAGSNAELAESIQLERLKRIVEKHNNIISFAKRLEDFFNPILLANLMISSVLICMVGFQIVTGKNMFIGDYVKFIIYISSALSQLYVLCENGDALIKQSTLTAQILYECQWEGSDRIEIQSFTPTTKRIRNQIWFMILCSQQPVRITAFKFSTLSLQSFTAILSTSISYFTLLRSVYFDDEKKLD
T1 sequence (Q9VNB5 1-486 partner): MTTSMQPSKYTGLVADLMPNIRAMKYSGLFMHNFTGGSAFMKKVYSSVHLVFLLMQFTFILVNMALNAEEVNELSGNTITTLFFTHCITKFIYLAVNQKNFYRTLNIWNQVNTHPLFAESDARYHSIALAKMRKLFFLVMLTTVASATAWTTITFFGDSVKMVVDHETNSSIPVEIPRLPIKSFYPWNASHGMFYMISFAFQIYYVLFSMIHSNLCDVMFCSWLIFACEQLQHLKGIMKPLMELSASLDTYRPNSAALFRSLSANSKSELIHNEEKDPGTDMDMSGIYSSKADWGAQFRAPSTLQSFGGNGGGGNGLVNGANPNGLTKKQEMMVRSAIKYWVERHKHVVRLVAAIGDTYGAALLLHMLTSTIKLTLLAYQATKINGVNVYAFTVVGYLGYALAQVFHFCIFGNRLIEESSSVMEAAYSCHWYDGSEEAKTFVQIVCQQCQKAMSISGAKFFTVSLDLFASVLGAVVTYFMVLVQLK
In short: (§1)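 Responses are VUAA1-normalized ΔF: each VOC-evoked calcium signal, (FMAX−F0)/F0 over 30 s after injection, divided by the same line's mean 50 µM VUAA1 response. Cells were doxycycline-induced HEK293 with GCaMP6 and the cognate Drosophila OR, in HEPES buffer pH 7.3; ligands tested 0.01–100 μM.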

[2] = molecular target: T2, Drosophila OR98a (Drosophila melanogaster, UniProt Q9VAZ3); assay: Calcium ion fluorescence (GCaMP6) assay, OR98a stable HEK293 cell line; assay type: cell-based; design: key to DF norm AVERAGE OR98a: VOC ∆F divided by the plate's mean ∆F response to 50 µM VUAA1; details: for DF norm AVERAGE OR98a: threshold 0.05, below shown as 0
T2 construct: expressed in transfected cells
T2 sequence (Q9VAZ3 1-397): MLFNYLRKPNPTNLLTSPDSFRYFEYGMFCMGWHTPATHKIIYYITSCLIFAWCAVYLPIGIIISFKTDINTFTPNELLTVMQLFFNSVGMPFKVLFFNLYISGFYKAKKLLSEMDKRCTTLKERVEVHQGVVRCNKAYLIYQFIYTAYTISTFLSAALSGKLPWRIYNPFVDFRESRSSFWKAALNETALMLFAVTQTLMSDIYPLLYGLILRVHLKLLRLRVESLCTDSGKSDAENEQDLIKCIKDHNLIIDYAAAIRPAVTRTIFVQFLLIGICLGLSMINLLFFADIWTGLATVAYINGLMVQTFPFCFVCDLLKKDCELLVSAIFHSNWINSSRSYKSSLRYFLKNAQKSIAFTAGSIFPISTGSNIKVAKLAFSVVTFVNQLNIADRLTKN
T2 sequence (Q9VNB5 1-486 partner): T1 sequence (Q9VNB5 1-486 partner)
In short: as §1

[3] = HEK293, read-out: OR13a Average response (VUAA1-normalized), 1 μM VOC, 50 μM VUAA1 = 1, responses not exceeding 0.05 considered 0
[4] = HEK293, read-out: OR13a Average response (VUAA1-normalized), 10 μM VOC, 50 μM VUAA1 = 1, responses not exceeding 0.05 considered 0
[5] = HEK293, read-out: OR13a Average response (VUAA1-normalized), 100 μM VOC, 50 μM VUAA1 = 1, responses not exceeding 0.05 considered 0
[6] = HEK293, read-out: OR13a response (VUAA1-normalized response), VOC concentration 1 μM
[7] = HEK293, read-out: OR13a response (VUAA1-normalized response), VOC concentration 10 μM
[8] = HEK293, read-out: OR13a response (VUAA1-normalized response), VOC concentration 100 μM
[9] = ligand concentration 1 (unit not given)
[10] = ligand concentration 10 (unit not given)
[11] = ligand concentration 100 (unit not given)
[12] = HEK293, read-out: Average response
[13] = HEK293, read-out: OR98a Average response (VUAA1-normalized)
[14] = HEK293, read-out: OR98a response (VUAA1-normalized response)
[15] = HEK293, read-out: OR13a Average response (VUAA1-normalized)
[16] = HEK293, read-out: OR13a response (VUAA1-normalized response)

Row | SMILES | activation at 1 µM [1, 3] [%] | activation at 10 µM [1, 4] [%] | activation at 100 µM [1, 5] [%] | activation at 1 µM [1, 6] [%] | activation at 10 µM [1, 7] [%] | activation at 100 µM [1, 8] [%] | DF norm AVERAGE OR13a [1, 9] | DF norm AVERAGE OR13a [1, 10] | DF norm AVERAGE OR13a [1, 11] | activation at 1 µM [2, 12] [%] | activation at 10 µM [2, 12] [%] | activation at 100 µM [2, 12] [%] | activation at 1 µM [2, 14] [%] | activation at 10 µM [2, 14] [%] | activation at 100 µM [2, 14] [%] | DF norm AVERAGE OR98a [2, 9] | DF norm AVERAGE OR98a [2, 10] | DF norm AVERAGE OR98a [2, 11] | also measured
1 | CCOC(=O)c1ccccc1 [ethyl benzoate] | 1.69 | 2.64 | 1.67 | 0 | 0 | 0 | 0 | 0 | 0 | 3 | 0 | 20 | 0 | 0 | 20 | 0 | 0 | 0.2048 | activation at 1 µM [2, 13]: 3%; activation at 10 µM [2, 13]: 0%; activation at 100 µM [2, 13]: 20%
2 | CCCC(=O)OCC [ethyl butyrate] | 0 | 0 | 0 | 0 | 0 | 0 | 0 | 0 | 0 | 3.54 | 0 | 6.6 | 0 | 0 | 6.6 | 0 | 0 | 0.06596 | –
3 | CCCCCC(=O)OCC [ethyl hexanoate] | 3.2 | 2.46 | 0 | 0 | 0 | 0 | 0 | 0 | 0 | 5 | 12 | 3.29 | 0 | 12 | 0 | 0 | 0.1164 | 0 | –
4 | CCOC(=O)CC [ethyl propionate] | 0 | 0 | 0 | 0 | 0 | 0 | 0 | 0 | 0 | 2 | 2 | 1.5 | 0 | 0 | 0 | 0 | 0 | 0 | –
5 | CCc1ccccc1 [ethylbenzene] | – | – | – | – | – | – | 0 | 0 | 0 | 0 | 12 | 0 | 0 | 12 | 0 | 0 | 0.1169 | 0 | activation at 1 µM [1, 15]: 1.44%; activation at 10 µM [1, 15]: 1.55%; activation at 100 µM [1, 15]: 0%; activation at 1 µM [1, 16]: 0%; activation at 10 µM [1, 16]: 0%; activation at 100 µM [1, 16]: 0%
